Here are results for six compounds from PubChem BioAssay (NCI).

Molecules are shown by their SMILES.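 Tested at 5 concentrations; 48 h exposure; 96-well plates; endpoints linearly interpolated, else capped at highest concentration. GI50: concentration for 50% inhibition of growth. Definition used: TGI = concentration required for complete inhibition of growth.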

Some test systems named below: A549 NSCLC; EKVX NSCLC; KM12 colon; NCI-H226 lung; NCI-H23 lung; SK-MEL-28 melanoma; SK-OV-3 ovarian; SR leukemia; TK-10 renal; UACC-62 melanoma.
Common to all, as to test: NCI-60 cell line screen, 48 h

Turning to `CCSc1nc(COC(=O)NC)c(COC(=O)NC)n1C`, the TGI with A549 NSCLC, in the assay with EKVX NSCLC, in the assay with KM12 colon, in the assay on NCI-H226 lung, in the assay with NCI-H23 lung and in the assay with SK-MEL-28 melanoma was over 100 µM each time. Besides, the TGI is over 95 µM with SK-OV-3 ovarian, over 100 µM in the assay on SR leukemia, over 100 µM with TK-10 renal and 51.2 µM in the assay with UACC-62 melanoma.

Take `CCCCCCCCCCCCC(=O)[O-].CCCCCCCCCCCCC(=O)[O-].CCCCCCCCCCCCC(=O)[O-].CCCCCCCCCCCCC(=O)[O-].[Mo+2].[Mo+2]`: the GI50 was 14.9 µM with A549 NSCLC; 19.7 µM in the assay with EKVX NSCLC; 10.9 µM in the assay with KM12 colon; 12.4 µM in the assay on NCI-H226 lung; 17.9 µM with NCI-H23 lung; 21.4 µM with SK-MEL-28 melanoma. Moreover, the GI50 in the assay on SK-OV-3 ovarian is 15.1 µM; in the assay on SR leukemia it was 5.83 µM; in the assay with TK-10 renal, 32.6 µM; in the assay with UACC-62 melanoma it was 11.7 µM. Also, the TGI with A549 NSCLC came out at 44.2 µM; with EKVX NSCLC it was 35.8 µM; with KM12 colon it was 29.1 µM; in the assay with NCI-H226 lung, 46.8 µM; with NCI-H23 lung, 40.6 µM; in the assay on SK-MEL-28 melanoma, 65.7 µM. The TGI amounted to 59.9 µM in the assay with SK-OV-3 ovarian, 29.8 µM in the assay with SR leukemia, 94.6 µM with TK-10 renal and 26.9 µM in the assay on UACC-62 melanoma.

Regarding `COc1ccc2c(C(=O)O)cc3cc(OC)c(OC)cc3c2c1`, the TGI with A549 NSCLC, in the assay on EKVX NSCLC, in the assay on KM12 colon, with NCI-H226 lung, in the assay on NCI-H23 lung and with SK-MEL-28 melanoma was over 100 µM throughout. Moreover, the TGI in the assay on SK-OV-3 ovarian, in the assay on SR leukemia, in the assay with TK-10 renal and with UACC-62 melanoma was over 100 µM throughout.

Regarding `NCc1ccc(-n2c(-c3nonc3N)nc3cnccc32)cc1`, the GI50 in the assay on A549 NSCLC was 6.86 µM; in the assay with EKVX NSCLC, over 25 µM; in the assay on KM12 colon, 8.79 µM; in the assay on NCI-H226 lung, 0.912 µM; with NCI-H23 lung, over 25 µM; in the assay on SK-MEL-28 melanoma, 11.4 µM. Also, the GI50 in the assay on SK-OV-3 ovarian is over 25 µM; with SR leukemia, 2.67 µM; in the assay on TK-10 renal it was 0.385 µM; in the assay on UACC-62 melanoma, over 25 µM. In addition, the TGI in the assay with A549 NSCLC, in the assay on EKVX NSCLC, with KM12 colon, with NCI-H226 lung, in the assay on NCI-H23 lung and in the assay with SK-MEL-28 melanoma was over 25 µM throughout. Besides, the TGI in the assay on SK-OV-3 ovarian, with SR leukemia, in the assay on TK-10 renal and with UACC-62 melanoma was over 25 µM in each case.

With `CC(C)(Br)C(=O)/C=C/c1ccccc1`, the TGI with A549 NSCLC is 56.7 µM; with EKVX NSCLC it was 23 µM; with KM12 colon, 43.6 µM; in the assay on NCI-H226 lung it was 24 µM; with NCI-H23 lung it was 5 µM; with SK-MEL-28 melanoma, 28.9 µM. Further, the TGI in the assay with SK-OV-3 ovarian was over 83.1 µM; in the assay with SR leukemia, over 25.6 µM; in the assay on TK-10 renal, 37.9 µM; in the assay on UACC-62 melanoma, 19 µM.

In the case of `Cc1cccc(C(C)(C)C)c1NC(=O)C(=O)C(c1cnc2ccccc2n1)[N+](=O)[O-]` (stereo not given), the TGI in the assay on A549 NSCLC, with EKVX NSCLC, with KM12 colon, with NCI-H226 lung, in the assay on NCI-H23 lung and in the assay on SK-MEL-28 melanoma was over 100 µM in each case. Also, the TGI in the assay with SK-OV-3 ovarian, with SR leukemia, with TK-10 renal and with UACC-62 melanoma was over 100 µM throughout.
